Test results: patent US10668047B2, “Aziridine containing DNA alkylating agents” (priority 2015, dated 2020)
Where two headings read alike, the source gives them in different places.

Test system: H460 non-cell lung cancer human tumor cell line
Test: In vitro human tumor cell line cytotoxicity (proliferation) assay, AlamarBlue
Assay type: cell-based
Method: IC50 values are reported in micromolar and result from exposure of compound at various concentrations for 2 hrs followed by a wash step and addition of fresh media followed by growth and cell viability staining and comparison to a media only treated control.
Specifically, exponentially growing cells are seeded at a density of 4×10^3 cells per well in a 96 well plate and incubated at 37° C. in 5% CO2, 95% air and 100% relative humidity for 24 hours prior to addition of test compounds. Compounds are solubilized in 100% DMSO at 200 times the desired final test concentration. At the time of drug addition, compounds are further diluted to 4 times the desired final concentration with complete medium. Aliquots of 50 μl of compound at specified concentrations are added to microtiter wells already containing 150 μl of medium, resulting in the final drug concentration reported. After drug addition, the plates are incubated for an additional 2 hours at 37° C., 5% CO2, 95% air, and 100% relative humidity, then the drug is washed off and fresh medium is added and the plates are incubated for addition 70 hrs at 37° C., 5% CO2, 95% air and 100% relative humidity. At the end of this incubation, the viable cells are quantified using the AlamarBlue assay. The drug concentration resulting in growth inhibition of 50% (IC50) is calculated using Prism software (Irvine, Calif.), and the results are listed in the table.

[1] = Homo sapiens, NCI-H460, H460 cells, under air, 2 hrs exposure, wash, then 70 hrs growth, read-out: IC50 (air)
[2] = Homo sapiens, NCI-H460, H460 cells, under nitrogen, 2 hrs exposure, wash, then 70 hrs growth, read-out: IC50 (N2)
[3] = H460 cells, under air, 2 hrs exposure, wash, then 70 hrs growth, read-out: IC50 (air)
[4] = H460 cells, under nitrogen, 2 hrs exposure, wash, then 70 hrs growth, read-out: IC50 (N2)
[5] = Homo sapiens, NCI-H460, read-out: IC50 (N2), H460 cells, under nitrogen, 2 hrs exposure, wash, then 70 hrs growth
[6] = Homo sapiens, NCI-H460, read-out: IC50 (air), H460 cells, under air, 2 hrs exposure, wash, then 70 hrs growth

| Structure (SMILES) | IC50 [1] [nM] | IC50 [2] [nM] | further results |
| --- | --- | --- | --- |
| CC(OP(=O)(N1CC1)N1CC1)c1ccc([N+](=O)[O-])c2ccccc12 (centres unmarked) [compound 2824] | 1700 | 20 |  |
| CC(OP(=O)(N1CC1)N1CC1)c1ccc([N+](=O)[O-])c(N2CCNC2(C)O)c1 (centres unmarked) [compound 2723] | 420000 | 29000 |  |
| CC(OP(=O)(N1CC1)N1CC1)c1ccc([N+](=O)[O-])c(C(F)F)c1 (centres unmarked) [compound 2821] | 5000 | 50 |  |
| CC(OP(=O)(N1CC1)N1CC1)c1ccc([N+](=O)[O-])c(Br)c1 (centres unmarked) [compound 2773] | 16000 | 700 |  |
| C=CCC(OP(=O)(N1CC1)N1CC1)c1ncc([N+](=O)[O-])n1C (centres unmarked) [compound 2527] | 39000 | 90 |  |
| CC(OP(=O)(N1CC1)N1CC1)c1ccc([N+](=O)[O-])c(-n2ccnc2)c1 (centres unmarked) [compound 2804] |  |  | IC50 [3]: 310000 nM; IC50 [4]: 600 nM |
| CCCCCCCCN(C)c1cc(C(C)OP(=O)(N2CC2)N2CC2)ccc1[N+](=O)[O-] (centres unmarked) [compound 2735] | 3100 | 2000 |  |
| CC(OP(=O)(N1CC1)N1CC1)c1ccc([N+](=O)[O-])c(-n2cnc(C(C)(C)C)c2)c1 (centres unmarked) [compound 2759] | 100000 | 400 |  |
| Cc1cn(-c2cc(C(C)OP(=O)(N3CC3)N3CC3)ccc2[N+](=O)[O-])cn1 (centres unmarked) [compound 2747] | 39000 | 300 |  |
| O=[N+]([O-])c1ccc(COP(=O)(N2CC2)N2CC2)c(Br)c1 [compound 2608] | 3100 | 300 |  |
| CC(C)C(OP(=O)(N1CC1)N1CC1)c1ncc([N+](=O)[O-])n1C(C)C (centres unmarked) [compound 2604] | 320000 | 700 |  |
| C=CCC(OP(=O)(N1CC1)N1CC1)c1ccc([N+](=O)[O-])cc1 (centres unmarked) [compound 2689] | 43000 | 600 |  |
| CC(OP(=O)(N1CC1)N1CC1)c1ccc([N+](=O)[O-])c(-n2ccnc2Cl)c1 (centres unmarked) [compound 2765] | 8100 | 30 |  |
| CC(C)(C)C(OP(=O)(N1CC1)N1CC1)c1ccc([N+](=O)[O-])o1 (centres unmarked) [compound 2127] | 18000 | 20 |  |
| CC(OP(=O)(N1CC1)N1CC1)c1ccc([N+](=O)[O-])c(-n2ccnc2Br)c1 (centres unmarked) [compound 2807] | 13000 | 30 |  |
| CC(OP(=O)(N1CC1)N1CC1)c1ccc([N+](=O)[O-])c(-n2c(N)nc3ccccc32)c1 (centres unmarked) [compound 2798] | 32000 | 600 |  |
| CC(C)C(OP(=O)(N1CC1)N1CC1)c1ccc([N+](=O)[O-])cc1 (centres unmarked) [compound 2572] | 29000 | 1600 |  |
| C#Cc1cc(C(C)OP(=O)(N2CC2)N2CC2)ccc1[N+](=O)[O-] (centres unmarked) [compound 2792] | 3700 | 200 |  |
| COc1cc([N+](=O)[O-])ccc1C(C)OP(=O)(N1CC1)N1CC1 (centres unmarked) [compound 2600] | 2800 | 50 |  |
| COc1cccc([N+](=O)[O-])c1COP(=O)(N1CC1)N1CC1 [compound 2637] | 23000 | 800 |  |

| Structure (SMILES) | IC50 [1] [nM] | IC50 [2] [nM] | further results |
| --- | --- | --- | --- |
| Cn1c([N+](=O)[O-])nc(C(F)F)c1COP(=O)(N1CC1)N1CC1 [compound 2137] | 2200 | 20 |  |
| O=[N+]([O-])c1ncn(-c2ccc(C(F)(F)F)cc2)c1COP(=O)(N1CC1)N1CC1 [compound 2656] | 2400 | 100 |  |
| CC(OP(=O)(N1CC1)N1CC1)c1ccc([N+](=O)[O-])c(-n2ccnc2-c2ccccc2)c1 (centres unmarked) [compound 2766] | 4800 | 700 |  |
| CC(C)C(OP(=O)(N1CC1)N1CC1)c1ncc([N+](=O)[O-])n1CCO (centres unmarked) [compound 2658] | 86000 | 300 |  |
| CC(OP(=O)(N1CC1)N1CC1)c1ccc([N+](=O)[O-])c(OCC(F)(F)F)c1 (centres unmarked) [compound 2698] | 3700 | 1600 |  |
| O=[N+]([O-])c1ccc(COP(=O)(N2CC2)N2CC2)c(-c2ccccc2)c1 [compound 2626] | 3300 | 600 |  |
| CC(OP(=O)(N1CC1)N1CC1)c1ccc([N+](=O)[O-])c(N(C)CCN(C)C)c1 (centres unmarked) [compound 2736] | 150000 | 2800 |  |
| CC(OP(=O)(N1CC1)N1CC1)c1ccc([N+](=O)[O-])c(N2CCCC[C@H]2C)c1 (some centres unmarked) [compound 2740] | 24000 | 1400 |  |
| CC(OP(=O)(N1CC1)N1CC1)c1ccc([N+](=O)[O-])c(NS(C)(=O)=O)c1 (centres unmarked) [compound 2726] | 19000 | 200 |  |
| CC(OP(=O)(N1CC1)N1CC1)c1ccc([N+](=O)[O-])c(-c2cn(-c3ccc(F)cc3)nn2)c1 (centres unmarked) [compound 2806] | 5400 | 300 |  |
| CC(OP(=O)(N1CC1)N1CC1)c1ccc([N+](=O)[O-])c(CF)c1 (centres unmarked) [compound 2822] | 3100 | 300 |  |
| CC(OP(=O)(N1CC1)N1CC1)c1ccc([N+](=O)[O-])c(N(C)CCN2CCOCC2)c1 (centres unmarked) [compound 2757] |  |  | IC50 [5]: 3800 nM; IC50 [6]: 380000 nM |
| CC(C)C(OP(=O)(N1CC1)N1CC1)c1ncc([N+](=O)[O-])n1CCN1CCCCC1 (centres unmarked) [compound 2603] | 29000 | 300 |  |
| CC(C)C(OP(=O)(N1CC1)N1CC1)c1nc(Br)c([N+](=O)[O-])n1C (centres unmarked) [compound 2624] | 160000 | 500 |  |
| CC(OP(=O)(N1CC1)N1CC1)c1ccc([N+](=O)[O-])c(N2CCN(C)CC2)c1 (centres unmarked) [compound 2702] | 47000 | 800 |  |
| CC(OP(=O)(N1CC1)N1CC1)c1ccc([N+](=O)[O-])c(-n2cnc(-c3ccccc3)c2)c1 (centres unmarked) [compound 2749] | 3000 | 100 |  |
| CC(OP(=O)(N1CC1)N1CC1)c1ccc([N+](=O)[O-])c(-c2cccc(C#N)c2)c1 (centres unmarked) [compound 2801] | 47000 | 2200 |  |
| C=Cc1nc([N+](=O)[O-])n(C)c1COP(=O)(N1CC1)N1CC1 [compound 2129] | 700 | 80 |  |
| CC(OP(=O)(N1CC1)N1CC1)c1ccc([N+](=O)[O-])c(-n2cnc(CO)c2)c1 (centres unmarked) [compound 2746] | 220000 | 2600 |  |
| Cn1c([N+](=O)[O-])nc(-c2cc(Cl)c(Cl)s2)c1COP(=O)(N1CC1)N1CC1 [compound 2525] | 700 | 20 |  |

| Structure (SMILES) | IC50 [1] [nM] | IC50 [2] [nM] | further results |
| --- | --- | --- | --- |
| Cn1c([N+](=O)[O-])cnc1C(CO)OP(=O)(C1CC1)N1CC1 (centres unmarked) [compound 2654] | > 500000 | 260000 |  |
| CC(OP(=O)(N1CC1)N1CC1)c1ccc([N+](=O)[O-])c(-c2ccccc2C(F)(F)F)c1 (centres unmarked) [compound 2799] | 37000 | 2300 |  |
| O=[N+]([O-])c1ccc(COP(=O)(N2CC2)N2CC2)cc1Cl [compound 2579] | 2600 | 1300 |  |
| C=CCC(OP(=O)(N1CC1)N1CC1)c1ccc([N+](=O)[O-])cc1OC (centres unmarked) [compound 2569] | 2000 | 50 |  |
| CC(OP(=O)(N1CC1)N1CC1)c1ccc([N+](=O)[O-])c(C[N+](=O)[O-])c1 (centres unmarked) [compound 2811] |  |  | IC50 [5]: 100 nM; IC50 [6]: 8400 nM |
| O=[N+]([O-])c1cc(Cl)c(COP(=O)(N2CC2)N2CC2)c(Cl)c1 [compound 2602] | 250 | 20 |  |
| CC(OP(=O)(N1CC1)N1CC1)c1ncc([N+](=O)[O-])n1C (centres unmarked) [compound 2552] |  |  | IC50 [3]: 23000 nM; IC50 [4]: 100 nM |
| CC(OP(=O)(N1CC1)N1CC1)c1ccc([N+](=O)[O-])c(-c2ccco2)c1 (centres unmarked) [compound 2782] | 41000 | 1700 |  |
| CC(OP(=O)(N1CC1)N1CC1)c1ccc([N+](=O)[O-])c(-n2cncn2)c1 (centres unmarked) [compound 2727] | 31000 | 200 |  |
| CC(OP(=O)(N1CC1)N1CC1)c1ccc([N+](=O)[O-])c(N=[N+]=[N-])c1 (centres unmarked) [compound 2691] | 2300 | 2300 |  |
| Cn1c(C(OP(=O)(N2CC2)N2CC2)C(F)(F)C(F)(F)F)cnc1[N+](=O)[O-] (centres unmarked) [compound 2128] | 18000 | 20 |  |
| Cc1cc(COP(=O)(N2CC2)N2CC2)ccc1[N+](=O)[O-] [compound 2580] | 20000 | 3700 |  |
| CC(OP(=O)(N1CC1)N1CC1)c1cc(-n2cnc([N+](=O)[O-])c2)c([N+](=O)[O-])cc1F (centres unmarked) [compound 2742] |  |  | IC50 [5]: 100 nM; IC50 [6]: 3000 nM |
| CC(OP(=O)(N1CC1)N1CC1)c1ccc([N+](=O)[O-])c(NC2CC2)c1 (centres unmarked) [compound 2687] | 15000 | 2200 |  |
| CC(OP(=O)(N1CC1)N1CC1)c1ccc([N+](=O)[O-])c(S(C)(=O)=O)c1 (centres unmarked) [compound 2700] | 370000 | 350000 |  |
| CCCC(OP(=O)(N1CC1)N1CC1)c1ccc([N+](=O)[O-])cc1OC (centres unmarked) [compound 2595] | 3200 | 200 |  |
| CC(OP(=O)(N1CC1)N1CC1)c1cc(-n2cncn2)c([N+](=O)[O-])cc1F (centres unmarked) [compound 2733] | 2800 | 30 |  |
| CC(C)C(OP(=O)(N1CC1)N1CC1)c1ncc([N+](=O)[O-])n1C (centres unmarked) [compound 2568] |  |  | IC50 [3]: 350000 nM; IC50 [4]: 300 nM |
